From the kinase profiling compilation of Christmann-Franck et al. (2016)

Tests used:
Test in all cases: radiometric filter-binding kinase assay, Kinase HotSpot
Settings in all cases: compound 0.5 µM; ATP 10 µM
AURKB (human) = AURKB (human) (UniProt Q96GD4)
AXL (human) = AXL (human) (UniProt P30530)
BLK (human) = BLK (human) (UniProt P51451)
BRSK2 (human) = BRSK2 (human) (UniProt Q8IWQ3)
CDK1 CCNA2 (human) = CDK1 CCNA2 (human) (UniProt P06493+P20248)
CDK2 CCNE1 (human) = CDK2 CCNE1 (human) (UniProt P24941+P24864)
CDK2 CCNE1 (human), sequence (P24864 whole entry, looked up, other chains not shown): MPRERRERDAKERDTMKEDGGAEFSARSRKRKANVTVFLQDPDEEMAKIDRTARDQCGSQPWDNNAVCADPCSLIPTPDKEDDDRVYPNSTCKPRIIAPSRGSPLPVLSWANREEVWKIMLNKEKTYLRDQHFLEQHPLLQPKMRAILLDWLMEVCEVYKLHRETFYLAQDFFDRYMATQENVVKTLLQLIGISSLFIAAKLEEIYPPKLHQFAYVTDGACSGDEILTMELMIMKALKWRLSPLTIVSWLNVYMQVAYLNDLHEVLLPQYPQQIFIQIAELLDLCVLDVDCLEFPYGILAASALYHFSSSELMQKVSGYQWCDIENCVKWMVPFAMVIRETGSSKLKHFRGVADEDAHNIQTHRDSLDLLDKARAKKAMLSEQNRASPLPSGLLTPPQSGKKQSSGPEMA

CDK7 CCNH MNAT1 (human) = CDK7 CCNH MNAT1 (human) (UniProt P50613+P51948+P51946)
CSNK1G2 (human) = CSNK1G2 (human) (UniProt P78368)
CSNK1G3 (human) = CSNK1G3 (human) (UniProt Q9Y6M4)
CSNK2A1 (human) = CSNK2A1 (human) (UniProt P68400)
DDR2 (human) = DDR2 (human) (UniProt Q16832)
DYRK2 (human) = DYRK2 (human) (UniProt Q92630)
DYRK4 (human) = DYRK4 (human) (UniProt Q9NR20)
FER (human) = FER (human) (UniProt P16591)
FGR (human) = FGR (human) (UniProt P09769)
GRK4 (human) = GRK4 (human) (UniProt P32298)
GRK5 (human) = GRK5 (human) (UniProt P34947)
HIPK4 (human) = HIPK4 (human) (UniProt Q8NE63)
HIPK4 (human), sequence (Q8NE63 whole entry, looked up): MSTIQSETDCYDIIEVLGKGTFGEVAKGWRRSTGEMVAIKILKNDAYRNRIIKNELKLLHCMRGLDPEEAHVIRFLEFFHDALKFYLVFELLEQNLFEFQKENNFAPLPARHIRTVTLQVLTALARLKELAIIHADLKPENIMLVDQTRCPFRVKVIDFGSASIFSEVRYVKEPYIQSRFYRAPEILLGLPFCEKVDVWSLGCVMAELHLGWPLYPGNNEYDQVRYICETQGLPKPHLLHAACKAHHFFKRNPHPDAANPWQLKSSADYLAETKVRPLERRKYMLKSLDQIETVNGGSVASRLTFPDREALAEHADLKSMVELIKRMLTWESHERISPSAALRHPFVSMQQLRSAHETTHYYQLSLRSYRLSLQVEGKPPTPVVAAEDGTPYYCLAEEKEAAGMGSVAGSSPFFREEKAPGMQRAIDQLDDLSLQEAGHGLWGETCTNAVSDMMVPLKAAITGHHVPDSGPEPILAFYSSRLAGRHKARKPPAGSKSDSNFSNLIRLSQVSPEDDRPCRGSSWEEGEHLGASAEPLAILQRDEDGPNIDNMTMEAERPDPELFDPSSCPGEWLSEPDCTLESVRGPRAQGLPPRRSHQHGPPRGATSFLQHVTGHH

INSR (human) = INSR (human) (UniProt P06213)
JAK3 JH1 JH2 (human) = JAK3 JH1 JH2 (human) (UniProt P52333)
LIMK1 (human) = LIMK1 (human) (UniProt P53667)
LIMK1 (human), sequence (P53667 whole entry, looked up): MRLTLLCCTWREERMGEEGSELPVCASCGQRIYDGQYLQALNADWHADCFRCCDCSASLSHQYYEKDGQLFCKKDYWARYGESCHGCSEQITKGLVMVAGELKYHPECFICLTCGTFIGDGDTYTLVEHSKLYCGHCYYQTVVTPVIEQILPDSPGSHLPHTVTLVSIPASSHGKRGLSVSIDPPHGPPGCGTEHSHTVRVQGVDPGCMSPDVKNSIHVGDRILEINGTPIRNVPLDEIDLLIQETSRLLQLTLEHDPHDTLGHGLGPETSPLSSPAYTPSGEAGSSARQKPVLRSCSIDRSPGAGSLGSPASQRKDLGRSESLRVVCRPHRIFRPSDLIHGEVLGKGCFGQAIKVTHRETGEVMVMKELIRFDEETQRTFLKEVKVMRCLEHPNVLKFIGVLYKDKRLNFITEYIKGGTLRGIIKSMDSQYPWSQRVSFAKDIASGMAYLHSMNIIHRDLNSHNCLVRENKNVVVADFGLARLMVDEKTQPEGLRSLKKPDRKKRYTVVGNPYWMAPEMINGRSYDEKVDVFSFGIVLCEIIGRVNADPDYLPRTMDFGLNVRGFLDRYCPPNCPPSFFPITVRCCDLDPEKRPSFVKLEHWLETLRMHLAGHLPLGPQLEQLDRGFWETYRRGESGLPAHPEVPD

LRRK2 (human) = LRRK2 (human) (UniProt Q5S007)
LRRK2 (human), sequence (Q5S007 whole entry, looked up): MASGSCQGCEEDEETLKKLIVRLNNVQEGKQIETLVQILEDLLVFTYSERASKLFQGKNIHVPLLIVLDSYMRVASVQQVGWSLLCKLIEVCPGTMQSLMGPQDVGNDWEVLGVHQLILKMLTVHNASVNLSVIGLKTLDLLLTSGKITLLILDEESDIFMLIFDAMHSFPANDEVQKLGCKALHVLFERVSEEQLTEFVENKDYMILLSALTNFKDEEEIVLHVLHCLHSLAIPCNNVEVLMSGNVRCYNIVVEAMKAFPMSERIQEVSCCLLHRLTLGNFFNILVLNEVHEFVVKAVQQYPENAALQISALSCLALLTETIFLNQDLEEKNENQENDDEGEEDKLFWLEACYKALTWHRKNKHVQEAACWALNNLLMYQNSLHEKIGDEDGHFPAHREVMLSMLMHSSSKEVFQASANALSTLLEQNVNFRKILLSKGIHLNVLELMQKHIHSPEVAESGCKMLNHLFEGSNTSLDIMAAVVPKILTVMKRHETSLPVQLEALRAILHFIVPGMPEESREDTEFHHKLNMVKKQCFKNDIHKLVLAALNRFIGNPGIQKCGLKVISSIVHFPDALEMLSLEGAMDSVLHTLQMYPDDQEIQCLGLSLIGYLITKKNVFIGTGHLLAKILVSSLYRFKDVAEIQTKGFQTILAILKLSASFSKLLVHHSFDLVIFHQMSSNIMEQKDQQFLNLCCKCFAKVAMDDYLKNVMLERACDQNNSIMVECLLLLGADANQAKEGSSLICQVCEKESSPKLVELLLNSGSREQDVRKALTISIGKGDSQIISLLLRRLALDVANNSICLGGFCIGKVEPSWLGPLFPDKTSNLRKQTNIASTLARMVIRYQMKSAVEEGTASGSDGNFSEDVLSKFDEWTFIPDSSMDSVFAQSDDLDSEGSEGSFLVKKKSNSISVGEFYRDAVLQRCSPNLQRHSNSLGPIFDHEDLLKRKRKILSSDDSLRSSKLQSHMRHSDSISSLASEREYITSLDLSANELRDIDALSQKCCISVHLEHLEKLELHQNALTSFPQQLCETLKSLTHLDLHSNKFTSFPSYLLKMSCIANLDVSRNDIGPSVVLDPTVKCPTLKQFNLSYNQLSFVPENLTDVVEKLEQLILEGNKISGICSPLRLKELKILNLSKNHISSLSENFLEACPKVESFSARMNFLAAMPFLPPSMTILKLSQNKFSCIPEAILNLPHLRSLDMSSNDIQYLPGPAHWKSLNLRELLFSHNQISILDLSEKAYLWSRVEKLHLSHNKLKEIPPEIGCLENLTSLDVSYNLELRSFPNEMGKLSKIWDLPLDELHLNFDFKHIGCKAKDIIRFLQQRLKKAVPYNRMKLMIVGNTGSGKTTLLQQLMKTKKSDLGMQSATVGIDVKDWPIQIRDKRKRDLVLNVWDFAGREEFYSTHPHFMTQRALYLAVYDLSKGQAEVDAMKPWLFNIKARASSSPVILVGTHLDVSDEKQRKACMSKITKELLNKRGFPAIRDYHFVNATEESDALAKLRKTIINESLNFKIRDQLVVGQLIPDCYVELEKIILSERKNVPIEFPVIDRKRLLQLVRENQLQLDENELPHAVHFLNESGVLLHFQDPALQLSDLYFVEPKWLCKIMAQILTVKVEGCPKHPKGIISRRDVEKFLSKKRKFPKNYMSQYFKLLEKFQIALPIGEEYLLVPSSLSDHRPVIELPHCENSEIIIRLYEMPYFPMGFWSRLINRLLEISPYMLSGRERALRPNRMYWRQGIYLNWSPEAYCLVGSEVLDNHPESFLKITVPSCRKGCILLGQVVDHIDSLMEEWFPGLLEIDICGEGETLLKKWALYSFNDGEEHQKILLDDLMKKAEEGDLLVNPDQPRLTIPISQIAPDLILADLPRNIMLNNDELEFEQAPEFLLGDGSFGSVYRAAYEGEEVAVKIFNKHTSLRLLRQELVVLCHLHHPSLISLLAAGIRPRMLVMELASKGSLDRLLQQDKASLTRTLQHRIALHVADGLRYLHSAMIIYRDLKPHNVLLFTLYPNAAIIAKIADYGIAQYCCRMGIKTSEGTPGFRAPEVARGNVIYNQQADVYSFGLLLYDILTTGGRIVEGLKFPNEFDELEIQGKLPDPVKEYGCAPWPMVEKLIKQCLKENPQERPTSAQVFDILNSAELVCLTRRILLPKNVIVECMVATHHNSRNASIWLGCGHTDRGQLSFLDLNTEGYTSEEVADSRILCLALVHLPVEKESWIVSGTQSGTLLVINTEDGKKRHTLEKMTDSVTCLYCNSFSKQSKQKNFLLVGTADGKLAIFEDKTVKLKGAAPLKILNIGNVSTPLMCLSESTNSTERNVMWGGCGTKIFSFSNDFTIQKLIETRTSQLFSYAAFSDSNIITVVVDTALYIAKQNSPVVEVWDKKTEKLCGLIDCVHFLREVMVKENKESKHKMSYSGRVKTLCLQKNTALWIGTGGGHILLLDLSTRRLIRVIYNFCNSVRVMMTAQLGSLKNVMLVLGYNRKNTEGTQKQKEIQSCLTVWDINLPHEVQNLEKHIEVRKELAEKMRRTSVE

MAP3K3 (human) = MAP3K3 (human) (UniProt Q99759)
MAP3K8 (human) = MAP3K8 (human) (UniProt P41279)
MAP3K8 (human), sequence (P41279 whole entry, looked up): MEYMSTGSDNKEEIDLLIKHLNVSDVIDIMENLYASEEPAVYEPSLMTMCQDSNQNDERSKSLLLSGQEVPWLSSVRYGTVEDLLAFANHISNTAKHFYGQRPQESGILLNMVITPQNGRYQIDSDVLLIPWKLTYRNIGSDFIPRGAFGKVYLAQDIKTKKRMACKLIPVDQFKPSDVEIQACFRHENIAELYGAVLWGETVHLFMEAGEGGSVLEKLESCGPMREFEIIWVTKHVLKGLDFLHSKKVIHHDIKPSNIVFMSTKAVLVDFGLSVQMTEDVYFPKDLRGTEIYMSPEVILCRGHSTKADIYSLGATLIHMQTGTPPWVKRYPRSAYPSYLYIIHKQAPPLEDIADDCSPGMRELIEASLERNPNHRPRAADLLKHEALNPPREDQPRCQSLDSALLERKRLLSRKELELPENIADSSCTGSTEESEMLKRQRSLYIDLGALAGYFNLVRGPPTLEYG

MAP4K2 (human) = MAP4K2 (human) (UniProt Q12851)
MAPK8 (human) = MAPK8 (human) (UniProt P45983)
MST4 (human) = MST4 (human) (UniProt Q9P289)
NEK4 (human) = NEK4 (human) (UniProt P51957)
NEK6 (human) = NEK6 (human) (UniProt Q9HC98)
PIM3 (human) = PIM3 (human) (UniProt Q86V86)
PLK3 (human) = PLK3 (human) (UniProt Q9H4B4)
PRKD1 (human) = PRKD1 (human) (UniProt Q15139)
RIPK2 (human) = RIPK2 (human) (UniProt O43353)
ROCK2 (human) = ROCK2 (human) (UniProt O75116)
RPS6KA2 KD1 KD2 (human) = RPS6KA2 KD1 KD2 (human) (UniProt Q15349)
SGK2 (human) = SGK2 (human) (UniProt Q9HBY8)
SIK2 (human) = SIK2 (human) (UniProt Q9H0K1)
SRPK3 (human) = SRPK3 (human) (UniProt Q9UPE1)
STK16 (human) = STK16 (human) (UniProt O75716)
TEK (human) = TEK (human) (UniProt Q02763)
[1] = biological target: TYK2 JH1 catalytic (human) (UniProt P29597)
ULK2 (human) = ULK2 (human) (UniProt Q8IYT8)

## CCCNC(=O)Nc1ccc(Oc2ncnc3cc(OC)c(OC)cc23)cc1Cl
AURKB (human)
  residual activity: 37%
AXL (human)
  residual activity: 101%
BLK (human)
  residual activity: 96.8%
BRSK2 (human)
  residual activity: 96.7%
CDK1 CCNA2 (human)
  residual activity: 97.7%
CDK2 CCNE1 (human)
  residual activity: 95.2%
CDK7 CCNH MNAT1 (human)
  residual activity: 119%
CSNK1G2 (human)
  residual activity: 84.8%
CSNK1G3 (human)
  residual activity: 105%
CSNK2A1 (human)
  residual activity: 105%
DDR2 (human)
  residual activity: 67.6%
DYRK2 (human)
  residual activity: 108%
DYRK4 (human)
  residual activity: 106%
FER (human)
  residual activity: 74.1%
FGR (human)
  residual activity: 70.2%
GRK4 (human)
  residual activity: 94.4%
GRK5 (human)
  residual activity: 105%
HIPK4 (human)
  residual activity: 93.5%
INSR (human)
  residual activity: 92.4%
JAK3 JH1 JH2 (human)
  residual activity: 88.9%
LIMK1 (human)
  residual activity: 81.6%
LRRK2 (human)
  residual activity: 94.1%
MAP3K3 (human)
  residual activity: 95.3%
MAP3K8 (human)
  residual activity: 104%
MAP4K2 (human)
  residual activity: 83.1%
MAPK8 (human)
  residual activity: 107%
MST4 (human)
  residual activity: 86.9%
NEK4 (human)
  residual activity: 76%
NEK6 (human)
  residual activity: 105%
PIM3 (human)
  residual activity: 81.3%
PLK3 (human)
  residual activity: 95%
PRKD1 (human)
  residual activity: 92.9%
RIPK2 (human)
  residual activity: 84.8%
ROCK2 (human)
  residual activity: 97.7%
RPS6KA2 KD1 KD2 (human)
  residual activity: 95.7%
SGK2 (human)
  residual activity: 97.1%
SIK2 (human)
  residual activity: 101%
SRPK3 (human)
  residual activity: 95.8%
STK16 (human)
  residual activity: 93.4%
TEK (human)
  residual activity: 87%
[1]
  residual activity: 95.2%
ULK2 (human)
  residual activity: 89.2%

## COc1cc2ncnc(Nc3ccc(F)c(Cl)c3)c2cc1OCCCN1CCOCC1
AURKB (human)
  residual activity: 106%
AXL (human)
  residual activity: 88.8%
BLK (human)
  residual activity: 87.7%
BRSK2 (human)
  residual activity: 103%
CDK1 CCNA2 (human)
  residual activity: 101%
CDK2 CCNE1 (human)
  residual activity: 101%
CDK7 CCNH MNAT1 (human)
  residual activity: 105%
CSNK1G2 (human)
  residual activity: 98.1%
CSNK1G3 (human)
  residual activity: 103%
CSNK2A1 (human)
  residual activity: 114%
DDR2 (human)
  residual activity: 117%
DYRK2 (human)
  residual activity: 98.2%
DYRK4 (human)
  residual activity: 105%
FER (human)
  residual activity: 94.1%
FGR (human)
  residual activity: 70.1%
GRK4 (human)
  residual activity: 91%
GRK5 (human)
  residual activity: 94.9%
HIPK4 (human)
  residual activity: 90.4%
INSR (human)
  residual activity: 107%
JAK3 JH1 JH2 (human)
  residual activity: 96.6%
LIMK1 (human)
  residual activity: 90%
LRRK2 (human)
  residual activity: 108%
MAP3K3 (human)
  residual activity: 107%
MAP3K8 (human)
  residual activity: 95.7%
MAP4K2 (human)
  residual activity: 104%
MAPK8 (human)
  residual activity: 93.1%
MST4 (human)
  residual activity: 106%
NEK4 (human)
  residual activity: 103%
NEK6 (human)
  residual activity: 89.9%
PIM3 (human)
  residual activity: 74.6%
PLK3 (human)
  residual activity: 103%
PRKD1 (human)
  residual activity: 85.4%
ROCK2 (human)
  residual activity: 90.8%
RPS6KA2 KD1 KD2 (human)
  residual activity: 82.3%
SGK2 (human)
  residual activity: 117%
SIK2 (human)
  residual activity: 49.3%
SRPK3 (human)
  residual activity: 103%
STK16 (human)
  residual activity: 96.8%
TEK (human)
  residual activity: 96.2%
[1]
  residual activity: 102%
ULK2 (human)
  residual activity: 104%

## Nc1nc(Nc2ccc(S(N)(=O)=O)cc2)nn1C(=S)Nc1c(F)cccc1F
AURKB (human)
  residual activity: 12.9%
AXL (human)
  residual activity: 34.2%
BLK (human)
  residual activity: 38.6%
BRSK2 (human)
  residual activity: 9.03%
CDK1 CCNA2 (human)
  residual activity: -0.154%
CDK2 CCNE1 (human)
  residual activity: 8.92%
CDK7 CCNH MNAT1 (human)
  residual activity: 43.6%
CSNK1G2 (human)
  residual activity: 14.8%
CSNK1G3 (human)
  residual activity: 20.8%
CSNK2A1 (human)
  residual activity: 76.6%
DDR2 (human)
  residual activity: 130%
DYRK2 (human)
  residual activity: 60.4%
DYRK4 (human)
  residual activity: 96.5%
FER (human)
  residual activity: 21.7%
FGR (human)
  residual activity: 17.1%
GRK4 (human)
  residual activity: 92.2%
GRK5 (human)
  residual activity: 75.6%
HIPK4 (human)
  residual activity: 50.6%
JAK3 JH1 JH2 (human)
  residual activity: 5.21%
LIMK1 (human)
  residual activity: -0.611%
LRRK2 (human)
  residual activity: 1.33%
MAP3K3 (human)
  residual activity: 5.41%
MAP3K8 (human)
  residual activity: 127%
MAP4K2 (human)
  residual activity: 2.13%
MAPK8 (human)
  residual activity: 78.8%
MST4 (human)
  residual activity: 4.54%
NEK4 (human)
  residual activity: 60.5%
NEK6 (human)
  residual activity: 78.8%
PIM3 (human)
  residual activity: 89.1%
PLK3 (human)
  residual activity: 92.2%
PRKD1 (human)
  residual activity: 7.79%
RIPK2 (human)
  residual activity: 19.7%
ROCK2 (human)
  residual activity: 6.22%
RPS6KA2 KD1 KD2 (human)
  residual activity: 2.08%
SGK2 (human)
  residual activity: 42%
SIK2 (human)
  residual activity: 16.1%
SRPK3 (human)
  residual activity: 48.7%
STK16 (human)
  residual activity: 42.5%
TEK (human)
  residual activity: 5.06%
[1]
  residual activity: 5.11%
ULK2 (human)
  residual activity: 4.73%
